This test has as its target T1, N-terminally GST-tagged DLK (catalytic domain amino acid 1-520) (Homo sapiens, UniProt Q12852).
T1 construct: N-terminally GST-tagged DLK (catalytic domain amino acid 1-520); purchased Carna Bioscience
T1 sequence (Q12852 1-520): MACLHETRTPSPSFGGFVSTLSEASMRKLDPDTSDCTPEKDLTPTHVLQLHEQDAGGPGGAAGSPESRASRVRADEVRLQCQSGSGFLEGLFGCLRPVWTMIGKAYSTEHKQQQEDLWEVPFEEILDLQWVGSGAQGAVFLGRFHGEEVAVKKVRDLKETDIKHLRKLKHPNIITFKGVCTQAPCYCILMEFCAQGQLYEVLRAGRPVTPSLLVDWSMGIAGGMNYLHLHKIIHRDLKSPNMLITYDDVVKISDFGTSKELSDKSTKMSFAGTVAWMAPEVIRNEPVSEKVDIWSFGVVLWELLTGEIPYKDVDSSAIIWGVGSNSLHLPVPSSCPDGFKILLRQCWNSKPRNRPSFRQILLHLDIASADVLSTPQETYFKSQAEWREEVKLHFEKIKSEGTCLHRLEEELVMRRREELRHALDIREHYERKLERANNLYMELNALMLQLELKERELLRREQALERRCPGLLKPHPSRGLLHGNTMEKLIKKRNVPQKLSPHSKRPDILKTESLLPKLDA
The experiment in a line: DLK TR-FRET inhibition assay. Type of test: biochemical. The following applies: 5 nM GST-DLK, 40 nM HIS-MKK4 K131M substrate, 30 μM ATP, 60 minutes at ambient temperature. How it is done: DLK TR-FRET inhibition assay: DLK kinase reactions (20 μL) containing 5 nM N-terminally GST-tagged DLK (catalytic domain amino acid 1-520) (Carna Bioscience), 40 nM N-terminally HIS-tagged MKK4 K131M substrate, and 30 μM ATP in kinase reaction buffer (50 mM HEPES, pH 7.5, 0.01% Triton X-100, 0.01% Bovine γ-Globulins, 2 mM DTT, 10 mM MgCl2 and 1 mM EGTA), and testing compound 1:3 serial diluted starting at 20 uM were incubated at ambient temperature for 60 minutes in 384 well OptiPlate (Perkin Elmer). To quench kinase reactions and detect phosphorylated MKK4, 15 μL of TR-FRET antibody mixture containing 2 nM anti-phosphorylated MKK4 labeled with Europium cryptate (Cisbio) and 23 nM anti-HIS labeled with D2 (Cisbio) in detection buffer (25 mM Tris pH 7.5, 100 mM NaCl, 100 mM EDTA, 0.01% Tween-20, and 200 mM KF) was added to the reaction mixture. The detection mixture was incubated for 3 hours at ambient temperature and the TR-FRET was detected with an EnVision multilabel plate reader (Perkin-Elmer) using the LANCE/DELFIA Dual Enh label from Perkin-Elmer (excitation filter: UV2 (TRF) 320 and emission filters: APC 665 and Europium 615).
In general terms: Time-resolved FRET reads energy transfer from a long-lived donor to a nearby acceptor.
For `COC1CCN([C@H]2C[C@@H]3[C@H](C2)[C@H]3c2cc(-c3cnc(N)c(C(F)(F)F)c3)nn2C(C)C)CC1` [compound 251, 5-(1-isopropyl-5-((1R,3r,5S,6r)-3-(4-methoxypiperidin-1-yl)bicyclo[3.1.0]hexan-6-yl)-1H-pyrazol-3-yl)-3-(trifluoromethyl) pyridin-2-amine], the affinity, expressed as Ki, was 2.7 nM.

For `CC(C)n1nc(-c2cnc(N)c(C(F)(F)F)c2)cc1[C@H]1[C@@H]2C[C@@H](N3CCOC[C@@H]3C)C[C@@H]21` [compound 103, 5-(1-isopropyl-5-((1R,3s,5S,6S)-3-((S)-3-methylmorpholino)bicyclo[3.1.0]hexan-6-yl)-1H-pyrazol-3-yl)-3-(trifluoromethyl) pyridin-2-amine], the Ki – broadly, a measure of affinity in units of concentration, obtained from inhibition or displacement – was determined as 1.28 nM.

Turning to `CC(C)N1CCN([C@H]2C[C@@H]3[C@H](C2)[C@H]3c2cc(-c3cnc(N)c(OC(F)F)c3)nn2C(C)C)CC1` [compound 177, 3-(difluoromethoxy)-5-(1-isopropyl-5-((1R,3r,5S,6r)-3-(4-isopropyl-piperazin-1-yl)bicyclo[3.1.0]hexan-6-yl)-1H-pyrazol-3-yl) pyridin-2-amine], affinity was put at a Ki of 1.1 nM.

`CC(C)n1nc(-c2cnc(N)c(C(F)(F)F)c2)cc1[C@H]1[C@@H]2C[C@@H](n3cccn3)C[C@@H]21` [compound 110, 5-(5-((1R,3s,5S,6r)-3-(1H-pyrazol-1-yl)bicyclo[3.1.0]hexan-6-yl)-1-isopropyl-1H-pyrazol-3-yl)-3-(trifluoromethyl)pyridin-2-amine]: the inhibition constant Ki came to 3.89 nM.

Molecule `CC(C)n1nc(-c2cnc3cnn([C@H](C)c4ccccn4)c3c2)cc1[C@H]1[C@@H]2C[C@H](N3CCOCC3)C[C@@H]21` [compound 33, 4-((1R3R,5S,6r)-6-(1-isopropyl-3-(1-((R)-1-(pyridin-2-yl)ethyl)-1H-pyrazolo[4,3-b]pyridin-6-yl)-1H-pyrazol-5-yl)bicyclo[3.10]hexan-3-yl)morpholine] yielded a Ki of 123 nM.

As to `CC(C)n1nc(-c2cnc(N)c(C(F)(F)F)c2)cc1[C@H]1[C@@H]2C[C@H](N3CCN[C@@H](C)C3)C[C@@H]21` [compound 234, 5-(1-isopropyl-5-((1R,3r,5S,6S)-3-((S)-3-methylpiperazin-1-yl)bicyclo[3.1.0]hexan-6-yl)-1H-pyrazol-3-yl)-3-(trifluoromethyl) pyridin-2-amine], affinity was put at a Ki of 4.9 nM.

Regarding `CC(C)n1nc(-c2cnc(N)c(C(F)(F)F)c2)cc1[C@H]1[C@@H]2C[C@H](N(C)C)C[C@@H]21` [compound 188, 5-(5-((lR,3r,5S,6r)-3-(dimethylamino)bicyclo[3.1,0]hexan-6-yl)-1-isopropyl-1 H-pyrazol-3-yl)-3-(trifluoromethyl)pyridin-2-am inc], the Ki worked out at 2.8 nM.

Regarding `CC(C)n1nc(-c2cnc(N)c(OC(F)(F)F)c2)cc1[C@H]1[C@@H]2C[C@H](N3CC4(CN(C)CCO4)C3)C[C@@H]21` [compound 220, 5-(1-isopropyl-5-((1R,3r,5S,6r)-3-(8-methyl-5-oxa-2,8-diazaspiro [3.5]nonan-2-yl)bicyclo[3.1.0]hexan-6-yl)-1H-pyrazol-3-yl)-3-(trifluoromethoxy)pyridin-2-amine], the inhibition constant (Ki) was 2.1 nM.

Consider `CC(C)n1nc(-c2cnc(N)c(OC(F)(F)F)c2)cc1[C@H]1[C@@H]2C[C@H](N3CC4(CCCO4)C3)C[C@@H]21` [compound 226, 5-(5-((1R,3r,5S,6r)-3-(5-oxa-2-azaspiro[3.4]octan-2-yl)bicyclo [3.1.0]hexan-6-yl)-1-isopropyl-1H-pyrazol-3-yl)-3-(trifluoro-methoxy)pyridin-2-amine], for which the Ki is 3.2 nM.

On to `CC(C)n1nc(-c2cnc(N)c(OC(F)F)c2)cc1[C@H]1[C@@H]2C[C@H](N3C[C@@H]4C[C@H]3CN4C)C[C@@H]21` [compound 202, 3-(difluoromethoxy)-5-(1-isopropyl-5-((1R,3r,5S,6S)-3-((1S,4S)-5-methyl-2,5-diazabicyclo[2.2.1]heptan-2-yl)bicyclo[3.1.0]hexan-6-yl)-1H-pyrazol-3-yl) pyridin-2-amine], for which the Ki amounted to 1.2 nM.

`COC1CCN([C@H]2C[C@@H]3[C@H](C2)[C@H]3c2cc(-c3cnc(N)c(OC(F)(F)F)c3)nn2C(C)C)CC1` [compound 248, 5-(1-isopropyl-5-((1R,3r,5S,6r)-3-(4-methoxypiperidin-1-yl)bicyclo[3.1.0]hexan-6-yl)-1H-pyrazol-3-yl)-3-(trifluoromethoxy) pyridin-2-amine] had a Ki of 2.8 nM.

`Nc1ncc(-c2cc([C@H]3[C@@H]4C[C@@H](N5CCOCC5)C[C@@H]43)n(CC3CC3)n2)cc1OC(F)(F)F` [compound 292, 5-(1-(cyclopropylmethyl)-5-((1R,3s,5S,6r)-3-morpholinobicyclo [3.1.0]hexan-6-yl)-1H-pyrazol-3-yl)-3-(trifluoromethoxy) pyridin-2-amine] registered a Ki of 4.6 nM.

On to `Nc1ncc(-c2cc([C@H]3[C@@H]4C[C@@H](N5CCOCC5)C[C@@H]43)nn2CC2CC2)cc1OC(F)F` [compound 268, 5-(1-(cyclopropylmethyl)-3-((1R,3s,5S,6r)-3-morpholinobicyclo [3.1.0]hexan-6-yl)-1H-pyrazol-5-yl)-3-(difluoromethoxy) pyridin-2-amine], for which the Ki was 221 nM.

In turn, `CC(C)n1nc(-c2cnc(N)c(OC(F)(F)F)c2)cc1[C@H]1[C@@H]2C[C@H](N(C)C3COC3)C[C@@H]21` [compound 47, 5-(1-isopropyl-5-((1R,3r,5S,6r)-3-(methyl(oxetan-3-yl)amino)bicyclo[3.1.0]hexan-6-yl)-1H-pyrazol-3-yl)-3-(trifluoromethoxy) pyridin-2-amine] displayed an inhibition constant Ki of 4.11 nM.

`CC(C)n1nc(-c2cnc(N)c(OC(F)(F)F)c2)cc1[C@H]1[C@@H]2C[C@@]3(CCN3C3COC3)C[C@@H]21` [compound 140, 5-(1-isopropyl-5-((1′R,2r,5′S,6′r)-1-(oxetan-3-yl)spiro[azetidine-2,3′-bicyclo[3.1.0]hexan]-6′-yl)-1H-pyrazol-3-yl)-3-(trifluoro-methoxy)pyridin-2-amine] yielded an inhibition constant Ki of 6.59 nM.

With `CC(C)n1nc(-c2cnc(N)c(C(F)(F)F)c2)cc1[C@H]1[C@@H]2C[C@@H](N3CCN(C)C[C@@H]3C)C[C@@H]21` [compound 239, 5-(5-((1R,3s,5S,6S)-3-((S)-2,4-dimethylpiperazin-1-yl)bicyclo [3.1.0]hexan-6-yl)-1-isopropyl-1H-pyrazol-3-yl)-3-(trifluoromethyl) pyridin-2-amine], the Ki turned out to be 1.7 nM.

Molecule `CC(C)n1nc(-c2cnc(N)c(OC(F)(F)F)c2)cc1[C@H]1[C@@H]2C[C@@H](N3CCO[C@@H](C)C3)C[C@@H]21` [compound 113, 5-(1-isopropyl-5-((1R,3s,5S,6S)-3-((S)-2-methylmorpholino)bicyclo[3.1.0]hexan-6-yl)-1H-pyrazol-3-yl)-3-(trifluoromethoxy) pyridin-2-amine] displayed a Ki of 4.23 nM.

In turn, `CC(C)n1nc(-c2cnc(N)c(OC(F)F)c2)cc1[C@H]1[C@@H]2C[C@@H](N3CCOC[C@@H]3C)C[C@@H]21` [compound 79, 3-(difluoromethoxy)-5-(1-isopropyl-5-((1R,3s,5S,6S)-3-((S)-3-methylmorpholino)bicyclo[3.1.0]hexan-6-yl)-1H-pyrazol-3-yl) pyridin-2-amine] showed a Ki of 1.1 nM.

Regarding `CC(C)n1nc(-c2cnc(N)c(OC(F)F)c2)cc1[C@H]1[C@@H]2C[C@H](N3CC4CC(C3)O4)C[C@@H]21` [compound 271, 5-(5-((1R,3r,5S,6r)-3-(6-oxa-3-azabicyclo[3.1.1]heptan-3-yl)bicyclo[3.1.0]hexan-6-yl)-1-iso-propyl-1H-pyrazol-3-yl)-3-(difluoro-methoxy)pyridin-2-amine], the Ki was found to be 2.6 nM.

On to `CCN1CCN([C@H]2C[C@@H]3[C@H](C2)[C@H]3c2cc(-c3cnc(N)c(OC(F)(F)F)c3)nn2C(C)C)CC1` [compound 14, 5-(5-((1R,3r,5S,6r)-3-(4-ethylpiperazin-1-yl)bicyclo[3.1.0]hexan-6-yl)-1-isopropyl-1H-pyrazol-3-yl)-3-(trifluoromethoxy) pyridin-2-amine], for which the affinity, expressed as Ki, was 1.72 nM.

With `CC(C)n1nc(-c2cnc(N)c(C(F)(F)F)c2)cc1[C@H]1[C@@H]2CC(N3CCN4CCOCC4C3)C[C@@H]21` (single isomer, unassigned) [compound 196], the Ki was determined as 3.4 nM.
